Measured values: patent publication US4410459A, “Process for preparation of cytostatic compounds” (priority 1980, dated 1983)
Like-named read-outs stand apart in the source and are kept apart here.

Assays:
[1] = system: intraperitoneally transplantable tumors (P 388 mouse leukaemia and NK/Ly ascites lymphoma); test: Similar transplanted tumor tests with N-desmethyl-N-(methoxymethyl)-20'-desoxy-leurosidine (life span); format: in vivo; conditions: for Treated/Control: mean length of life
Experimental: (§1) The effect of the new compounds on intraperitoneally transplantable tumors (P 388 mouse leukaemia and NK/Ly ascites lymphoma) is described hereinbelow. The P 388 leukaemia test was performed on BDF hybrid mice. The tests were carried out on groups of six mice and 10^6 tumor cells/animal were transplanted intraperitoneally. Administration of the test compounds was started in the 24th hour after transplantation. Treatment was performed intraperitoneally and the body weight and state of animals was controlled every day. The effect obtained on the treated animals is expressed in % of the mean length of life of the control group, given in days.
(§2) Into groups of ten Swiss-H/Riop outbred mice from our own breed 5×10^6 ascites tumour cells were transplanted intraperitoneally. In the 24th hour after transplantation treatment was started and the compounds were administered daily, altogether five times. The mean length of life of the control group amounted to 15.7 days.
Similar tests were performed with N-desmethyl-N-(methoxymethyl)-20'-desoxy-leurosidine. In these tests the doses and the number of treatments were varied.

P 388 mouse leukaemia = test: P 388 leukaemia test (life span of i.p. transplanted mice); format: in vivo, BDF hybrid mice
Experimental: as §1

[2] = Acute toxicity in mice (i.p., Lichfield and Wilcoxon), with paralytic side effect; format: in vivo, male Swiss mice; conditions: for LD50: mouse, in vivo, ip; for Paralytic side effect: symbols 0 / + not defined
Experimental: The acute toxicity of the compounds according to the invention was tested on male Swiss mice weighing 27 to 31 g. The tests were carried out on groups of six mice. Test compounds were administered intraperitoneally, as injectable solutions prepared with physiological saline solution and optionally one drop of Tween 80.

HeLa culture = test: Metaphase block stages in stained tissue cultures; format: cell-based; conditions: for effect on mitosis at lowest dose: 0.001 μg./ml.
Experimental: The test compounds were dissolved in the tissue cultures (HeLa culture) in concentrations ranging from the threshold dose of 1×10^-3 μg./ml. up to 100 μg./ml. In 24-hour cultures, by in vivo microscopic evaluation of the metaphase-arresting affect the following results were obtained.
Under similar conditions but using stained tissue cultures slight differences could be observed which can be classified as follows:
The first stage (minimal effective dose) is characterized by an increased ratio of blocked mitoses. A part is abnormal mitoses, for example three-group mitosis or polar chromosomes also occur. Generally the anaphases have already disappeared.
In the second stage a strong metaphase blocking is observed and practically there is no regulare mitosis present. Chromosomes are in the form of a loose glomus. The proportion of interphase cells is low.
In the third stage the chromosomas are aggregated in a mass in the middle of the cell. This state is called picnomitosis of "Ball-Metaphase".
In the fourth stage already the interphase cells are influenced. More particularly, the number of the blocked cells is decreased since they are not able to take part in mitosis. The cytoplasm of the cells (in interphase) is extended, its border is irregular, "fringy", the cells frequently have an elongated, fibroplast-like shape.
Finally, in the fifth stage the cytoplasm is filled in by a fine, reticular structure and the interphase cell has unambiguously been killed by the treatment.

NK/Ly ascites lymphoma = test: NK/Ly ascites tumour test (survival and tumor-free animals); format: in vivo, Swiss-H/Riop outbred mice
Experimental: as §1, §2

[3] = Mus musculus, P388, ip, mean length of life, 8 × 1.0 mg./kg. i.p., read-out: Treated/Control
[4] = Mus musculus, P388, ip, mean length of life, 8 × 2.0 mg./kg. i.p., read-out: Treated/Control
[5] = Mus musculus, P388, ip, mean length of life, 8 × 4.0 mg./kg. i.p., read-out: Treated/Control
[6] = Mus musculus, P388, ip, mean length of life, 8 × 8.0 mg./kg. i.p., read-out: Treated/Control
[7] = Mus musculus, P388, ip, mean length of life, 8 × 0.4 mg./kg. i.p., read-out: Treated/Control

Row | SMILES | Mean length of life, treated (P 388 mouse leukaemia; 8 × 4.0 mg./kg. i.p.) | Mean length of life, treated (P 388 mouse leukaemia; 8 × 8.0 mg./kg. i.p.) | response vs control in vivo at 4 mg/kg (P 388 mouse leukaemia; [5]) | response vs control in vivo at 8 mg/kg (P 388 mouse leukaemia; [6]) | LD50 [2] | Paralytic side effect [2] | Mean length of life, treated (P 388 mouse leukaemia; 8 × 0.4 mg./kg. i.p.) | response vs control in vivo at 0.4 mg/kg (P 388 mouse leukaemia; [7]) | further results
1 | CCC1CC2CN(CCc3c([nH]c4ccccc34)C(C(=O)OC)(c3cc4c(cc3OC)N(COC)C3C(O)(C(=O)OC)C(OC(C)=O)C5(CC)C=CCN6CCC43C65)C2)C1 (centres unmarked) [N-Desmethyl-N-(methoxymethyl)-20'-desoxyleurosidine] | – | – | – | – | – | – | – | – | Mean length of life, treated ([1]; 4 × 7 mg./kg. i.p.): 17.1 days; Mean length of life, treated ([1]; 4 × 8 mg./kg. i.p.): 21.8 days; Mean length of life, treated ([1]; 8 × 0.5 mg./kg. i.p.): 15.3 days; Mean length of life, treated ([1]; 8 × 1 mg./kg. i.p.): 21.7 days; Mean length of life, treated ([1]; 8 × 4 mg./kg. i.p.): 20.8 days; Treated/Control ([1]; 4 × 7 mg./kg. i.p.): 142%; Treated/Control ([1]; 4 × 8 mg./kg. i.p.): 180%; Treated/Control ([1]; 8 × 0.5 mg./kg. i.p.): 126%; Treated/Control ([1]; 8 × 1 mg./kg. i.p.): 178%; Treated/Control ([1]; 8 × 4 mg./kg. i.p.): 180%
2 | CCCOCN1c2cc(OC)c(C3(C(=O)OC)CC4CN(CCc5c3[nH]c3ccccc53)CC(O)(CC)C4)cc2C23CCN4CC=CC(CC)(C(OC(C)=O)C(O)(C(=O)OC)C12)C43 (centres unmarked) [N-Desmethyl-N-(propoxymethyl)-vinblastine] | 19.0 days | 20.2 days | 171% | 205% | ~80 mg/kg | 0 | – | – | Mean length of life, treated (P 388 mouse leukaemia; 8 × 1.0 mg./kg. i.p.): 15.0 days; Mean length of life, treated (P 388 mouse leukaemia; 8 × 2.0 mg./kg. i.p.): 20.8 days; Mean length of life, treated (P 388 mouse leukaemia; 8 × 10.0 mg./kg. i.p.): 14.7 days; Toxicity (P 388 mouse leukaemia; 8 × 10.0 mg./kg. i.p., footnote: The animals died tumorfree): toxic; response vs control in vivo at 1 mg/kg (P 388 mouse leukaemia; [3]): 145%; response vs control in vivo at 2 mg/kg (P 388 mouse leukaemia; [4]): 198%; response vs control in vivo at 10 mg/kg (P 388 mouse leukaemia; Mus musculus, P388, ip, mean length of life, 8 × 10.0 mg./kg. i.p., read-out: Treated/Control): 142%
3 | CC[C@]1(O)C[C@@H]2CN(CCc3c([nH]c4ccccc34)[C@@](C(=O)OC)(c3cc4c(cc3OC)N(C)[C@H]3[C@@](O)(C(=O)OC)[C@H](OC(C)=O)[C@]5(CC)C=CCN6CC[C@]43[C@@H]65)C2)C1 [vinblastine, reference compound] | – | – | – | – | – | 0 | – | – | –
4 | CC[C@]1(O)C[C@@H]2CN(CCc3c([nH]c4ccccc34)[C@@](C(=O)OC)(c3cc4c(cc3OC)N(C)[C@H]3[C@@](O)(C(N)=O)[C@H](O)[C@]5(CC)C=CCN6CC[C@]43[C@@H]65)C2)C1 [vindesine, reference compound] | – | – | – | – | 4 mg/kg | – | – | – | –
5 | CCC1(O)CC2CN(CCc3c([nH]c4ccccc34)C(C(=O)OC)(c3cc4c(cc3OC)N(COCc3ccccc3)C3C(O)(C(=O)OC)C(OC(C)=O)C5(CC)C=CCN6CCC43C65)C2)C1 (centres unmarked) [N-Desmethyl-N-(benzyloxymethyl)-vinblastine] | 18.3 days | – | 178% | – | ~70 mg/kg | 0 | 13.0 days | 126% | relative effectiveness (HeLa culture): weakest effect; effect on mitosis at lowest dose (HeLa culture): minimum block with several deformed mitoses but without anaphases; effect on mitosis at 0.01 μg./ml. (HeLa culture; 0.01 μg./ml.): the block was moderate; Mean length of life, treated (P 388 mouse leukaemia; 5 × 8.0 mg./kg. i.p.): 19.2 days; response vs control in vivo at 8 mg/kg (P 388 mouse leukaemia; Mus musculus, P388, ip, mean length of life, 5 × 8.0 mg./kg. i.p., read-out: Treated/Control): 195%
6 | CCC1(O)CC2CN(CCc3c([nH]c4ccccc34)C(C(=O)OC)(c3cc4c(cc3OC)N(COC)C3C(O)(C(=O)OC)C(OC(C)=O)C5(CC)C=CCN6CCC43C65)C2)C1 (centres unmarked) [N-Desmethyl-N-(methoxymethyl)-vinblastine] | – | – | 171% | – | ~100 mg/kg | 0 | – | – | Mean length of life, treated (P 388 mouse leukaemia; 8 × 1.0 mg./kg. i.p.): 12.7 days; Mean length of life, treated (P 388 mouse leukaemia; 8 × 6.0 mg./kg. i.p.): 19.2 days; response vs control in vivo at 1 mg/kg (P 388 mouse leukaemia; [3]): 122%; response vs control in vivo at 6 mg/kg (P 388 mouse leukaemia; Mus musculus, P388, ip, mean length of life, 8 × 6.0 mg./kg. i.p., read-out: Treated/Control): 182%
7 | CCC1(O)CC2CN(CCc3c([nH]c4ccccc34)C(C(=O)OC)(c3cc4c(cc3OC)N(COC3CCCCC3)C3C(O)(C(=O)OC)C(OC(C)=O)C5(CC)C=CCN6CCC43C65)C2)C1 (centres unmarked) [N-Desmethyl-N-(cyclohexaloxymethyl)vinblastine] | 18.8 days | 19.3 days | 181% | 197% | ~60 mg/kg | 0 | 13.1 days | 127% | alive (NK/Ly ascites lymphoma; 5 × 4.0 mg./kg. i.p.): 10/10; on the 25th day tumor-free (NK/Ly ascites lymphoma; 5 × 4.0 mg./kg. i.p.): 5/10; on the 30th day tumor-free (NK/Ly ascites lymphoma; 5 × 4.0 mg./kg. i.p.): 3/10
8 | CCC1(O)CC2CN(CCc3c([nH]c4ccccc34)C(C(=O)OC)(c3cc4c(cc3OC)N(COCC(C)C)C3C(O)(C(=O)OC)C(OC(C)=O)C5(CC)C=CCN6CCC43C65)C2)C1 (centres unmarked) [N-Desmethyl-N-(isobutoxymethyl)-vinblastine] | 20.0 days | 20.5 days | 194% | 208% | ~60 mg/kg | 0 | 13.7 days | 133% | relative effectiveness (HeLa culture): an order of a magnitude lower effect; effect on mitosis at lowest dose (HeLa culture): regular mitoses could still be observed; alive (NK/Ly ascites lymphoma; 5 × 4.0 mg./kg. i.p.): 10/10; on the 25th day tumor-free (NK/Ly ascites lymphoma; 5 × 4.0 mg./kg. i.p.): 10/10; on the 30th day tumor-free (NK/Ly ascites lymphoma; 5 × 4.0 mg./kg. i.p.): 7/10
9 | CCOCN1c2cc(OC)c(C3(C(=O)OC)CC4CN(CCc5c3[nH]c3ccccc53)CC(O)(CC)C4)cc2C23CCN4CC=CC(CC)(C(OC(C)=O)C(O)(C(=O)OC)C12)C43 (centres unmarked) [N-Desmethyl-N-(ethoxymethyl)-vinblastine] | 18.5 days | 20.5 days | 167% | 208% | ~110 mg/kg | 0 | – | – | Mean length of life, treated (P 388 mouse leukaemia; 8 × 2.0 mg./kg. i.p.): 20.3 days; response vs control in vivo at 2 mg/kg (P 388 mouse leukaemia; [4]): 193%
10 | CCCCCCCOCN1c2cc(OC)c(C3(C(=O)OC)CC4CN(CCc5c3[nH]c3ccccc53)CC(O)(CC)C4)cc2C23CCN4CC=CC(CC)(C(OC(C)=O)C(O)(C(=O)OC)C12)C43 (centres unmarked) [N-Desmethyl-N-(heptoxymethyl)-vinblastine] | 18.7 days | 21.3 days | 181% | 247% | ~60 mg/kg | 0 | 14.3 days | 139% | relative effectiveness (HeLa culture): most effective compound; alive (NK/Ly ascites lymphoma; 5 × 6.0 mg./kg. i.p.): 10/10; on the 25th day tumor-free (NK/Ly ascites lymphoma; 5 × 6.0 mg./kg. i.p.): 7/10; on the 30th day tumor-free (NK/Ly ascites lymphoma; 5 × 6.0 mg./kg. i.p.): 3/10
11 | C=CCOCN1c2cc(OC)c(C3(C(=O)OC)CC4CN(CCc5c3[nH]c3ccccc53)CC(O)(CC)C4)cc2C23CCN4CC=CC(CC)(C(OC(C)=O)C(O)(C(=O)OC)C12)C43 (centres unmarked) [N-Desmethyl-N-(allyloxymethyl)-vinblastine] | 21.0 days | 20.5 days | 200% | 207% | ~45 mg/kg | 0 | 15.0 days | 145% | alive (NK/Ly ascites lymphoma; 5 × 4.0 mg./kg. i.p.): 10/10; on the 25th day tumor-free (NK/Ly ascites lymphoma; 5 × 4.0 mg./kg. i.p.): 10/10; on the 30th day tumor-free (NK/Ly ascites lymphoma; 5 × 4.0 mg./kg. i.p.): 6/10
